Assay results published in patent publication EP4455142A1, “NOVEL INHIBITOR OF QPCTL AND/OR QC” (Scenic Immunology B.V., priority 2023, dated 2024).

Assays:
[1] = tested on: Pan02 cells; experiment: In vivo Pan02 syngeneic mouse model; set-up: species or system C57BL/6 female mice
Description: Anti tumor effects were evaluated in the Pan02, pancreatic adenocarcinoma syngeneic mouse tumor model. For this study 3 × 10^6 Pan02 cells were injected in the right front flank of C57BL/6 female mice. Tumor size was measured and when tumors reached an average size of 80-120 mm^3, treatment was started. Treatment consisted of compound alone, or in combination with the anti PD-L1 antibody (B7-H1). Compound (1) was administered orally at 100 mg/kg once daily and anti-PD-L1 antibody was administered intraperitoneally at 10 mg/kg twice weekly. Tumor progression was monitored by tumor volume measurement using a caliper.

[2] = tested on: Raji human Burkitt's lymphoma cells; experiment: In vivo Raji xenograft mouse model; set-up: species or system NSG mice; conditions: (1) 100 mg/kg orally once daily in combination with Rituximab 10 mg/kg intravenously Q3D, versus Rituximab alone
Description: Anti tumor effects were determined in a model for Burkitt's lymphoma. NSG mice were intravenuously injected with 1 × 10^6 Raji human Burkitt's lymphoma cells. Four days after tumor cell injection, animals were treated with compound (1) as a single agent and in combination with Rituximab (anti-CD20 antibody). Compound (1) was administered at 100 mg/kg orally, once daily. Rituximab was dosed at 10 mg/kg intravenously every third day (Q3D). Tumor progression was evaluated by monitoring animal health and body weight measurement. […] Animals treated with compound in combination with Rituximab, on average, lived 5.5 days longer than animals treated with Rituximab alone.

O=C1OC[C@H](c2ccc(-c3cnn(C(F)(F)F)c3)cc2F)N1c1ccc2[nH]cnc2c1 [Compound (1)]
anti tumor effect (tumor volume), combined with anti-PD-L1 antibody ([1]; (1) orally 100 mg/kg once daily plus anti-PD-L1 antibody intraperitoneally 10 mg/kg twice weekly): tumor regression
anti tumor effect (tumor volume), compound alone ([1]; (1) orally 100 mg/kg once daily, by itself): tumor growth inhibition
lived longer than animals treated with Rituximab alone (on average) [2]: 5.5 days
